Source: ChEMBL document CHEMBL3864146, “5-Alkyloxytryptamines are membrane-targeting, broad-spectrum antibiotics” (Bioorg Med Chem Lett, 2016)
Converted amounts (≈) assume the structure as drawn.

How the values were obtained:
Escherichia coli [1] = experiment: Antibacterial activity against tolC-deficient Escherichia coli BW25113 after 16 to 18 hrs by micro-dilution method; format: functional
Escherichia coli [2] = experiment: Adjuvant activity assessed as potentiation of ciprofloxacin-induced antibacterial activity against Escherichia coli BW25113 at 0.25 times MIC after 16 to 18 hrs by checkerboard assay (reference value: 13 ng/ml); format: functional
[3] = Cytotoxicity against HEK cells assessed as cell viability at 0.65 ug/ml after 24 hrs by CellTiter-Glo assay relative to control; format: toxicity, cell-based, HEK293; settings: human, read-out: Activity
Escherichia coli [4] = experiment: Adjuvant activity assessed as potentiation of ciprofloxacin-induced antibacterial activity against Escherichia coli BW25113 at 0.5 times MIC after 16 to 18 hrs by checkerboard assay (reference value: 13 ng/ml); format: functional
Escherichia coli [5] = experiment: Adjuvant activity assessed as potentiation of chloramphenicol-induced antibacterial activity against Escherichia coli BW25113 at 0.5 times MIC after 16 to 18 hrs by checkerboard assay (reference value: 8 ng/ml); format: functional
Vibrio cholerae = experiment: Antibacterial activity against Vibrio cholerae after 16 to 18 hrs by micro-dilution method; format: functional
[6] = Cytotoxicity against HEK cells assessed as cell viability at 1.3 ug/ml after 48 hrs by CellTiter-Glo assay relative to control; format: toxicity, cell-based, HEK293; settings: human, read-out: Activity
Klebsiella aerogenes = experiment: Antibacterial activity against Enterobacter aerogenes after 16 to 18 hrs by micro-dilution method; format: functional
Escherichia coli [7] = experiment: Adjuvant activity assessed as potentiation of rifampicin-induced antibacterial activity against Escherichia coli BW25113 at 0.5 times MIC after 16 to 18 hrs by checkerboard assay (reference value: 8 ng/ml); format: functional
Escherichia coli [8] = experiment: Adjuvant activity assessed as potentiation of tetracycline-induced antibacterial activity against Escherichia coli BW25113 at 0.5 times MIC after 16 to 18 hrs by checkerboard assay (reference value: 2 ng/ml); format: functional
Escherichia coli [9] = experiment: Adjuvant activity assessed as potentiation of rifampicin-induced antibacterial activity against Escherichia coli BW25113 at 0.25 times MIC after 16 to 18 hrs by checkerboard assay (reference value: 8 ng/ml); format: functional
Edwardsiella tarda = experiment: Antibacterial activity against Edwardsiella tarda after 16 to 18 hrs by micro-dilution method; format: functional
Staphylococcus aureus [10] = experiment: Antibacterial activity against Staphylococcus aureus after 16 to 18 hrs by micro-dilution method; format: functional
Escherichia coli [11] = experiment: Antibacterial activity against Escherichia coli BW25113 after 16 to 18 hrs by micro-dilution method; format: functional
[12] = Cytotoxicity against HEK cells assessed as cell viability at 2.6 ug/ml after 24 hrs by CellTiter-Glo assay relative to control; format: toxicity, cell-based, HEK293; settings: human, read-out: Activity
Shigella boydii = experiment: Antibacterial activity against Shigella boydii after 16 to 18 hrs by micro-dilution method; format: functional
Pseudomonas aeruginosa [13] = experiment: Antibacterial activity against Pseudomonas aeruginosa after 16 to 18 hrs by micro-dilution method; format: functional
[14] = Cytotoxicity against HEK cells assessed as cell viability at 0.65 ug/ml after 48 hrs by CellTiter-Glo assay relative to control; format: toxicity, cell-based, HEK293; settings: human, read-out: Activity
[15] = Cytotoxicity against HEK cells assessed as cell viability at 2.6 ug/ml after 48 hrs by CellTiter-Glo assay relative to control; format: toxicity, cell-based, HEK293; settings: human, read-out: Activity
Morganella morganii = experiment: Antibacterial activity against Morganella morganii after 16 to 18 hrs by micro-dilution method; format: functional
Acinetobacter baumannii [16] = experiment: Antibacterial activity against Acinetobacter baumannii after 16 to 18 hrs by micro-dilution method; format: functional
Bacillus subtilis = experiment: Antibacterial activity against Bacillus subtilis 168 after 16 to 18 hrs by micro-dilution method; format: functional; settings: subsp. subtilis str. 168
Klebsiella pneumoniae [17] = experiment: Antibacterial activity against Klebsiella pneumoniae after 16 to 18 hrs by micro-dilution method; format: functional
Escherichia coli [18] = experiment: Adjuvant activity assessed as potentiation of tetracycline-induced antibacterial activity against Escherichia coli BW25113 at 0.25 times MIC after 16 to 18 hrs by checkerboard assay (reference value: 2 ng/ml); format: functional
Escherichia coli [19] = experiment: Adjuvant activity assessed as potentiation of chloramphenicol-induced antibacterial activity against Escherichia coli BW25113 at 0.25 times MIC after 16 to 18 hrs by checkerboard assay (reference value: 8 ng/ml); format: functional
Salmonella typhimurium [20] = experiment: Antibacterial activity against Salmonella typhimurium after 16 to 18 hrs by micro-dilution method; format: functional, Salmonella enterica subsp. enterica serovar Typhimurium; settings: Salmonella enterica
[21] = Cytotoxicity against HEK cells assessed as cell viability at 1.3 ug/ml after 24 hrs by CellTiter-Glo assay relative to control; format: toxicity, cell-based, HEK293; settings: human, read-out: Activity
[22] = Cytotoxicity against HEK cells assessed as cell viability at 3.5 ug/ml after 48 hrs by CellTiter-Glo assay relative to control; format: toxicity, cell-based, HEK293; settings: human, read-out: Activity
[23] = Cytotoxicity against HEK cells assessed as cell viability at 6.9 ug/ml after 24 hrs by CellTiter-Glo assay relative to control; format: toxicity, cell-based, HEK293; settings: human, read-out: Activity
[24] = Cytotoxicity against HEK cells assessed as cell viability at 6.9 ug/ml after 48 hrs by CellTiter-Glo assay relative to control; format: toxicity, cell-based, HEK293; settings: human, read-out: Activity
Escherichia coli [25] = experiment: Induction of membrane permeabilization in Escherichia coli BW25113 at MIC after 15 mins by propidium iodide staining-based fluorescence microplate reader method relative to 50% ethanol; format: functional
[26] = Cytotoxicity against HEK cells assessed as cell viability at 14 ug/ml after 48 hrs by CellTiter-Glo assay relative to control; format: toxicity, cell-based, HEK293; settings: human, read-out: Activity
[27] = Cytotoxicity against HEK cells assessed as cell viability at 14 ug/ml after 24 hrs by CellTiter-Glo assay relative to control; format: toxicity, cell-based, HEK293; settings: human, read-out: Activity
[28] = Cytotoxicity against HEK cells assessed as cell viability at 3.5 ug/ml after 24 hrs by CellTiter-Glo assay relative to control; format: toxicity, cell-based, HEK293; settings: human, read-out: Activity
Staphylococcus aureus [29] = experiment: Adjuvant activity assessed as potentiation of tetracycline-induced antibacterial activity against Staphylococcus aureus at 1.6 ug/ml after 16 to 18 hrs by checkerboard assay (reference value: 0.125 ug/ml); format: functional
Acinetobacter baumannii [30] = experiment: Adjuvant activity assessed as potentiation of tetracycline-induced antibacterial activity against Acinetobacter baumannii at 3.2 ug/ml after 16 to 18 hrs by checkerboard assay (reference value: 1 ug/ml); format: functional
Pseudomonas aeruginosa [31] = experiment: Adjuvant activity assessed as potentiation of tetracycline-induced antibacterial activity against Pseudomonas aeruginosa at 3.2 ug/ml after 16 to 18 hrs by checkerboard assay (reference value: 32 ug/ml); format: functional
[32] = Cytotoxicity against HEK cells assessed as cell viability at 0.8 ug/ml after 24 hrs by CellTiter-Glo assay relative to control; format: toxicity, cell-based, HEK293; settings: human, read-out: Activity
[33] = Cytotoxicity against HEK cells assessed as cell viability at 0.8 ug/ml after 48 hrs by CellTiter-Glo assay relative to control; format: toxicity, cell-based, HEK293; settings: human, read-out: Activity
[34] = Cytotoxicity against HEK cells assessed as cell viability at 3.2 ug/ml after 48 hrs by CellTiter-Glo assay relative to control; format: toxicity, cell-based, HEK293; settings: human, read-out: Activity
Klebsiella pneumoniae [35] = experiment: Adjuvant activity assessed as potentiation of tetracycline-induced antibacterial activity against Klebsiella pneumoniae at 3.2 ug/ml after 16 to 18 hrs by checkerboard assay (reference value: 2 ug/ml); format: functional
[36] = Cytotoxicity against HEK cells assessed as cell viability at 1.6 ug/ml after 24 hrs by CellTiter-Glo assay relative to control; format: toxicity, cell-based, HEK293; settings: human, read-out: Activity
Salmonella typhimurium [37] = experiment: Adjuvant activity assessed as potentiation of tetracycline-induced antibacterial activity against Salmonella typhimurium at 3.2 ug/ml after 16 to 18 hrs by checkerboard assay (reference value: 1 ug/ml); format: functional, Salmonella enterica subsp. enterica serovar Typhimurium; settings: Salmonella enterica
[38] = Cytotoxicity against HEK cells assessed as cell viability at 1.6 ug/ml after 48 hrs by CellTiter-Glo assay relative to control; format: toxicity, cell-based, HEK293; settings: human, read-out: Activity
[39] = Cytotoxicity against HEK cells assessed as cell viability at 3.2 ug/ml after 24 hrs by CellTiter-Glo assay relative to control; format: toxicity, cell-based, HEK293; settings: human, read-out: Activity

SMILES | MIC (Escherichia coli [1]) [µg/mL] | MIC (Escherichia coli [2]) [µg/mL] | MIC (Escherichia coli [4]) [µg/mL] | MIC (Escherichia coli [5]) [µg/mL] | MIC (Vibrio cholerae) [µg/mL] | MIC (Klebsiella aerogenes) [µg/mL] | MIC (Escherichia coli [7]) [µg/mL] | MIC (Escherichia coli [8]) [µg/mL] | MIC (Escherichia coli [9]) [µg/mL] | MIC (Edwardsiella tarda) [µg/mL] | MIC (Staphylococcus aureus [10]) [µg/mL] | MIC (Escherichia coli [11]) [µg/mL] | MIC (Shigella boydii) [µg/mL] | MIC (Pseudomonas aeruginosa [13]) [µg/mL] | MIC (Morganella morganii) [µg/mL] | MIC (Acinetobacter baumannii [16]) [µg/mL] | MIC (Bacillus subtilis) [µg/mL] | MIC (Klebsiella pneumoniae [17]) [µg/mL] | MIC (Escherichia coli [18]) [µg/mL] | MIC (Escherichia coli [19]) [µg/mL] | other results
CCCCCCCCCOc1cccc(CCN)c1 | 2.6 (≈ 9.87 µM) | 0.025 | 0.025 | 0.004 | 5.3 (≈ 20.1 µM) | 5.3 (≈ 20.1 µM) | 0.002 | 0.001 | 0.004 | 5.3 (≈ 20.1 µM) | 5.3 (≈ 20.1 µM) | 5.3 (≈ 20.1 µM) | 5.3 (≈ 20.1 µM) | 21 (≈ 79.7 µM) | 11 (≈ 41.8 µM) | 5.3 (≈ 20.1 µM) | 0.66 (≈ 2.51 µM) | 5.3 (≈ 20.1 µM) | 0.002 | 0.008 | viability at 24 h, 0.65 ug/ml [3]: 72.7%; viability at 48 h, 1.3 ug/ml [6]: 31%; viability at 24 h, 2.6 ug/ml [12]: 3.4%; viability at 48 h, 0.65 ug/ml [14]: 58.1%; viability at 48 h, 2.6 ug/ml [15]: 1.8%; MIC (Salmonella typhimurium [20]): 5.3 µg/mL (≈ 20.1 µM); viability at 24 h, 1.3 ug/ml [21]: 60.5%
CCCCCCCCCCCCOc1ccc2[nH]cc(CCN)c2c1.Cl | 6.9 | 0.013 | 0.0008 | 0.0005 | 28 | > 110 | 0.00025 | 0.00025 | 0.001 | > 110 | 3.4 | 26 | 14 | > 110 | > 110 | 28 | 1.7 | > 110 | 0.001 | 0.001 | viability at 48 h, 3.5 ug/ml [22]: 13.4%; viability at 24 h, 6.9 ug/ml [23]: 10.4%; viability at 48 h, 6.9 ug/ml [24]: 2.6%; Activity (Escherichia coli [25]): 10%; viability at 48 h, 14 ug/ml [26]: 0.2%; viability at 24 h, 14 ug/ml [27]: 1.5%; viability at 24 h, 3.5 ug/ml [28]: 26%; MIC (Salmonella typhimurium [20]): 28 µg/mL
CCCCCCCCCCOc1ccc2[nH]cc(CCN)c2c1.Cl | 3.2 | 0.013 | 0.013 | 0.002 | 6.3 | 13 | 0.001 | 0.00025 | 0.008 | 25 | 3.2 to 6.3 | 6.3 | 3.2 | > 101 | 101 | 6.3 | 1.6 | 6.3 | 0.001 | 0.004 | MIC (Staphylococcus aureus [29]): 0.001 µg/mL; MIC (Acinetobacter baumannii [30]): 0.25 µg/mL; MIC (Pseudomonas aeruginosa [31]): 16 µg/mL; viability at 24 h, 0.8 ug/ml [32]: 59.7%; viability at 48 h, 0.8 ug/ml [33]: 39.1%; viability at 48 h, 3.2 ug/ml [34]: 2%; Activity (Escherichia coli [25]): 83%; MIC (Klebsiella pneumoniae [35]): 2 µg/mL; viability at 24 h, 1.6 ug/ml [36]: 29.6%; MIC (Salmonella typhimurium [37]): 0.016 µg/mL; viability at 48 h, 1.6 ug/ml [38]: 17%; viability at 24 h, 3.2 ug/ml [39]: 13.4%; MIC (Salmonella typhimurium [20]): 6.3 µg/mL
